# Source: ChEMBL document CHEMBL4825691, “Antimicrobial, modulatory, and antibiofilm activity of tt-farnesol on bacterial and fungal strains of importance to human health” (2021)
# How the values were obtained:
# Format in all cases: functional
# Staphylococcus aureus [1] = assay: Antibacterial activity against Staphylococcus aureus ATCC 29213 assessed as inhibition of bacterial growth incubated for 24 hrs by microdilution assay
# Staphylococcus aureus [2] = assay: Antibacterial activity against Staphylococcus aureus ATCC 43300 assessed as inhibition of bacterial growth incubated for 24 hrs by microdilution assay
# [3] = tested on: Staphylococcus epidermidis; assay: Antibacterial activity against Staphylococcus epidermidis 70 D assessed as inhibition of bacterial growth incubated for 24 hrs by microdilution assay
# Enterococcus faecalis [4] = assay: Antibacterial activity against Enterococcus faecalis ATCC 29212 assessed as inhibition of bacterial growth incubated for 24 hrs by microdilution assay
# Enterococcus faecalis [5] = assay: Antibacterial activity against Enterococcus faecalis ATCC 51299 assessed as inhibition of bacterial growth incubated for 24 hrs by microdilution assay
# Streptococcus agalactiae [6] = assay: Antibacterial activity against Streptococcus agalactiae ATCC 13813 assessed as inhibition of bacterial growth incubated for 24 hrs by microdilution assay
# Streptococcus pyogenes [7] = assay: Antibacterial activity against Streptococcus pyogenes ATCC 19615 assessed as inhibition of bacterial growth incubated for 24 hrs by microdilution assay
# Streptococcus mutans [8] = assay: Antibacterial activity against Streptococcus mutans ATCC 25175 assessed as inhibition of bacterial growth incubated for 24 hrs by microdilution assay
# Streptococcus sobrinus [9] = assay: Antibacterial activity against Streptococcus sobrinus ATCC 27351 assessed as inhibition of bacterial growth incubated for 24 hrs by microdilution assay
# [10] = tested on: Stenotrophomonas maltophilia; assay: Antibacterial activity against Stenotrophomonas maltophilia EM 0104assessed as inhibition of bacterial growth incubated for 24 hrs by microdilution assay
# Klebsiella pneumoniae = assay: Antibacterial activity against Klebsiella pneumoniae ATCC 1705 assessed as inhibition of bacterial growth incubated for 24 hrs by microdilution assay
# Salmonella typhimurium = assay: Antibacterial activity against Salmonella enterica subsp. enterica serovar Typhimurium ATCC 14028 assessed as inhibition of bacterial growth incubated for 24 hrs by microdilution assay
# Shigella flexneri = assay: Antibacterial activity against Shigella flexneri CCCD S006 assessed as inhibition of bacterial growth incubated for 24 hrs by microdilution assay
# Escherichia coli [11] = assay: Antibacterial activity against Escherichia coli ATCC 25922 assessed as inhibition of bacterial growth incubated for 24 hrs by microdilution assay
# Escherichia coli [12] = assay: Antibacterial activity against Escherichia coli STEC 2C1 assessed as inhibition of bacterial growth incubated for 24 hrs by microdilution assay
# Escherichia coli [13] = assay: Antibacterial activity against Escherichia coli ETEC 2589093 assessed as inhibition of bacterial growth incubated for 24 hrs by microdilution assay
# Escherichia coli [14] = assay: Antibacterial activity against Escherichia coli EHEC 933 assessed as inhibition of bacterial growth incubated for 24 hrs by microdilution assay
# Staphylococcus aureus [15] = assay: Antimicrobial activity against […] assessed assessed as reduction in bacterial growth at 1/4 times of drug MIC in the presence of Oxacillin by microdilution method
# [16] = tested on: Staphylococcus epidermidis; assay: Bactericidal activity against Staphylococcus epidermidis ATCC 12228 assessed as bacterial killing incubated for 24 hrs by microdilution assay
# Enterococcus faecalis [17] = assay: Bactericidal activity against Enterococcus faecalis ATCC 51299 assessed as bacterial killing incubated for 24 hrs by microdilution assay
# Streptococcus agalactiae [18] = assay: Bactericidal activity against Streptococcus agalactiae ATCC 13813 assessed as bacterial killing incubated for 24 hrs by microdilution assay
# Streptococcus sobrinus [19] = assay: Bactericidal activity against Streptococcus sobrinus ATCC 27351 assessed as bacterial killing incubated for 24 hrs by microdilution assay
# Staphylococcus aureus [20] = assay: Ratio of MBC to MIC against Staphylococcus aureus ATCC 43300
# Enterococcus faecalis [21] = assay: Ratio of MBC to MIC against Enterococcus faecalis ATCC 51299
# Enterococcus durans [22] = assay: Ratio of MBC to MIC against Enterococcus durans BIO 0114
# Streptococcus mutans [23] = assay: Ratio of MBC to MIC against Streptococcus mutans ATCC 25175
# Staphylococcus aureus [24] = assay: Antimicrobial activity against Staphylococcus aureus MED 55 assessed assessed as reduction in bacterial growth at 1/4 times of drug MIC in the presence of vancomycin by microdilution method
# [25] = tested on: Staphylococcus epidermidis; assay: Antimicrobial activity against Staphylococcus epidermidis ATCC 12228 assessed assessed as reduction in bacterial growth at 1/4 times of drug MIC in the presence of Oxacillin by microdilution method
# [26] = tested on: Staphylococcus epidermidis; assay: Antimicrobial activity against Staphylococcus epidermidis 70 D assessed assessed as reduction in bacterial growth at 1/4 times of drug MIC in the presence of vancomycin by microdilution method
# Enterococcus faecalis [27] = assay: Antimicrobial activity against Enterococcus faecalis ATCC 51299 assessed assessed as reduction in bacterial growth at 1/4 times of drug MIC in the presence of Teicoplanin by microdilution method
# Streptococcus pyogenes [28] = assay: Antimicrobial activity against Streptococcus pyogenes ATCC 19615 assessed assessed as reduction in bacterial growth at 1/4 times of drug MIC in the presence of Ampicillin by microdilution method
# [29] = tested on: Staphylococcus epidermidis; assay: Antimicrobial activity against Staphylococcus epidermidis ATCC 12228 assessed assessed as reduction in bacterial growth at 1/8 times of drug MIC in the presence of Oxacillin by microdilution method
# Streptococcus pyogenes [30] = assay: Antimicrobial activity against Streptococcus pyogenes ATCC 19615 assessed assessed as reduction in bacterial growth at 1/8 times of drug MIC in the presence of Ampicillin by microdilution method
# Streptococcus mutans [31] = assay: Antimicrobial activity against Streptococcus mutans ATCC 25175 assessed assessed as reduction in bacterial growth at 1/8 times of drug MIC in the presence of Ampicillin by microdilution method
# Staphylococcus aureus [32] = assay: Antimicrobial activity against Staphylococcus aureus ATCC […] assessed assessed as reduction in bacterial growth at 1/2 times of drug MIC in the presence of Oxacillin by microdilution method
# Staphylococcus aureus [33] = assay: Antimicrobial activity against Staphylococcus aureus MED 55 assessed assessed as reduction in bacterial growth at 1/2 times of drug MIC in the presence of Oxacillin by microdilution method
# Staphylococcus aureus [34] = assay: Antibiofilm activity against drug-resistant Staphylococcus aureus ATCC 43300 assessed as inhibition of biofilm formation incubated for 24 hrs by crystal violet staining based microtiter plate method
# [35] = tested on: Staphylococcus epidermidis; assay: Antibiofilm activity against drug-resistant Staphylococcus epidermidis 70 D assessed as inhibition of biofilm formation incubated for 24 hrs by crystal violet staining based microtiter plate method
# Enterococcus faecalis [36] = assay: Antibiofilm activity against drug-resistant Enterococcus faecalis ATCC 51299 assessed as inhibition of biofilm formation incubated for 24 hrs by crystal violet staining based microtiter plate method
# Enterococcus durans [37] = assay: Antibiofilm activity against drug-resistant Enterococcus durans BIO01 assessed as inhibition of biofilm formation incubated for 24 hrs by crystal violet staining based microtiter plate method
# Streptococcus agalactiae [38] = assay: Antibiofilm activity against drug-resistant Streptococcus agalactiae ATCC 13813 assessed as inhibition of biofilm formation incubated for 24 hrs by crystal violet staining based microtiter plate method
# Streptococcus pyogenes [39] = assay: Antibiofilm activity against drug-resistant Streptococcus pyogenes ATCC 19615 assessed as inhibition of biofilm formation incubated for 24 hrs by crystal violet staining based microtiter plate method
compound,measurement,setting,value
CC(C)=CCC/C(C)=C/CC/C(C)=C/CO [FARNESOL],MIC,Staphylococcus aureus [1],> 1020 µg/mL
same,MIC,Staphylococcus aureus [2],128 µg/mL
same,MIC,[3],64 µg/mL
same,MIC,Enterococcus faecalis [4],> 1020 µg/mL
same,MIC,Enterococcus faecalis [5],128 µg/mL
same,MIC,Streptococcus agalactiae [6],16 µg/mL
same,MIC,Streptococcus pyogenes [7],16 µg/mL
same,MIC,Streptococcus mutans [8],128 µg/mL
same,MIC,Streptococcus sobrinus [9],8 µg/mL
same,MIC,[10],> 1020 µg/mL
same,MIC,Klebsiella pneumoniae,> 1020 µg/mL
same,MIC,Salmonella typhimurium,> 1020 µg/mL
same,MIC,Shigella flexneri,> 1020 µg/mL
same,MIC,Escherichia coli [11],> 1020 µg/mL
same,MIC,Escherichia coli [12],> 1020 µg/mL
same,MIC,Escherichia coli [13],> 1020 µg/mL
same,MIC,Escherichia coli [14],> 1020 µg/mL
same,MIC,Staphylococcus aureus [15],8 µg/mL
same,MBC,[16],> 128 µg/mL
same,MBC,Enterococcus faecalis [17],> 512 µg/mL
same,MBC,Streptococcus agalactiae [18],32 µg/mL
same,MBC,Streptococcus sobrinus [19],16 µg/mL
same,Ratio,Staphylococcus aureus [20],>4
same,Ratio,Enterococcus faecalis [21],>4
same,Ratio,Enterococcus durans [22],>4
same,Ratio,Streptococcus mutans [23],4
same,MIC,Staphylococcus aureus [24],2 µg/mL
same,MIC,[25],0.25 µg/mL
same,MIC,[26],2 µg/mL
same,MIC,Enterococcus faecalis [27],1 µg/mL
same,MIC,Streptococcus pyogenes [28],0.063 µg/mL
same,MIC,[29],0.25 µg/mL
same,MIC,Streptococcus pyogenes [30],0.063 µg/mL
same,MIC,Streptococcus mutans [31],0.5 µg/mL
same,MIC,Staphylococcus aureus [32],1 µg/mL
same,MIC,Staphylococcus aureus [33],128 µg/mL
same,MIC,Staphylococcus aureus [34],32 µg/mL
same,MIC,[35],64 µg/mL
same,MIC,Enterococcus faecalis [36],128 µg/mL
same,MIC,Enterococcus durans [37],64 µg/mL
same,MIC,Streptococcus agalactiae [38],4 µg/mL
same,MIC,Streptococcus pyogenes [39],16 µg/mL
